According to ChEMBL document CHEMBL1201862, “PubChem BioAssay data set” (2004):
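Five compound concentrations were applied to cells in 96-well plates for 48 hours; endpoints were derived by simple linear interpolation of the resulting dose-response curve. The concentration for 50% growth inhibition is given as GI50.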 Activity calls are given as the source filed them. No stated cut-off is given here; in the data, active = GI50 up to about 1.1 µM and inactive = higher.

Key:
Test in all cases: DTP human tumour cell line panel, 48 h
A498 = tested on: A498
ACHN = tested on: ACHN
DMS-273 = tested on: DMS-273
EKVX = tested on: EKVX
HL-60 = tested on: HL-60
NCI-H460 = tested on: NCI-H460
NCI-H522 = tested on: NCI-H522
OVCAR-4 = tested on: OVCAR-4
OVCAR-5 = tested on: OVCAR-5
OVCAR-8 = tested on: OVCAR-8
RPMI-8226 = tested on: RPMI-8226
SF-539 = tested on: SF-539
SNB-19 = tested on: SNB-19
TK-10 = tested on: TK-10
DU-145 = tested on: DU-145
Hs-578T = tested on: Hs-578T
MDA-MB-231 = tested on: MDA-MB-231
MDA-MB-435 = tested on: MDA-MB-435
PC-3 = tested on: PC-3
MCF7 = tested on: MCF7

| SMILES | GI50 (A498) | GI50 (ACHN) | GI50 (DMS-273) | GI50 (EKVX) | GI50 (HL-60) | GI50 (NCI-H460) | GI50 (NCI-H522) | GI50 (OVCAR-4) | GI50 (OVCAR-5) | GI50 (OVCAR-8) | GI50 (RPMI-8226) | GI50 (SF-539) | GI50 (SNB-19) | GI50 (TK-10) | GI50 (DU-145) | GI50 (Hs-578T) | GI50 (MDA-MB-231) | GI50 (MDA-MB-435) | GI50 (PC-3) | GI50 (MCF7) |
| --- | --- | --- | --- | --- | --- | --- | --- | --- | --- | --- | --- | --- | --- | --- | --- | --- | --- | --- | --- | --- |
| CCCCC1CC(c2ccc(Cl)cc2)=NO1 (stereo not drawn) | > 100 µM (inactive) | > 100 µM (inactive) | > 100 µM (inactive) | > 100 µM (inactive) | 85.3 µM (inactive) | > 100 µM (inactive) | > 100 µM (inactive) | > 100 µM (inactive) | > 100 µM (inactive) | > 100 µM (inactive) | > 100 µM (inactive) | > 100 µM (inactive) | > 100 µM (inactive) | > 100 µM (inactive) |  |  |  |  |  |  |
| CCC[C@H]1O[C@@H]2CC(=O)O[C@@H]2C2=C1C(=O)C=CC2=O | 34.2 µM (inactive) | 13.1 µM (inactive) | 13.6 µM (inactive) | > 44.1 µM (inactive) | 5.7 µM (inactive) | > 100 µM (inactive) | 2.2 µM (inactive) | 16.3 µM (inactive) | 19.7 µM (inactive) | > 47.4 µM (inactive) | 25.6 µM (inactive) | 19.4 µM (inactive) | > 60.4 µM (inactive) | > 42.8 µM (inactive) |  |  |  |  |  |  |
| COC(=O)C1Cc2c([nH]c3ccccc23)C(c2ccccc2O)N1Cc1ccccc1 (stereo not drawn) | 28.9 µM (inactive) | 28.4 µM (inactive) | 23.8 µM (inactive) | > 31.6 µM (inactive) | > 46.5 µM (inactive) | 30.8 µM (inactive) | 16.4 µM (inactive) | 24.4 µM (inactive) | > 46.5 µM (inactive) | 29.4 µM (inactive) | > 100 µM (inactive) | 27.8 µM (inactive) | > 31.6 µM (inactive) | 34.3 µM (inactive) |  |  |  |  |  |  |
| COc1cccc2c1C(=O)c1c(O)c3c(c(O)c1C2=O)C[C@@](O)(C(C)=O)C[C@@H]3OC1CC(O)C(O)C(C)O1 (stereo partly drawn) | 3.05 µM (inactive) | 0.543 µM (active) | 0.253 µM (active) | 6.67 µM (inactive) | 0.0501 µM (active) | 0.124 µM (active) | 1.82 µM (inactive) | 3.81 µM (inactive) | 1.04 µM (active) | 1.3 µM (inactive) | 0.485 µM (active) | 0.9 µM (active) | 1.09 µM (active) | 5.74 µM (inactive) | 1.62 µM (inactive) | 0.998 µM (active) | 8.65 µM (inactive) | 8.95 µM (inactive) | 4.95 µM (inactive) |  |
| CC#CC1C2CCCC1(CSc1ccccc1)NC(=O)O2 (stereo not drawn) | > 100 µM (inactive) | > 100 µM (inactive) | > 100 µM (inactive) | > 100 µM (inactive) | > 100 µM (inactive) | > 100 µM (inactive) | > 100 µM (inactive) | > 100 µM (inactive) | > 100 µM (inactive) | > 100 µM (inactive) | 63.8 µM (inactive) | > 100 µM (inactive) | > 100 µM (inactive) | > 100 µM (inactive) |  |  |  |  |  |  |
| O=C(c1ccc(Cl)cc1Cl)N(/N=C/C=C/c1ccccc1)c1nnc(-c2ccccc2)c(-c2ccccc2)n1 | > 100 µM (inactive) | > 100 µM (inactive) | > 100 µM (inactive) | > 100 µM (inactive) | > 100 µM (inactive) | > 100 µM (inactive) | 21.8 µM (inactive) | > 100 µM (inactive) | > 100 µM (inactive) | > 100 µM (inactive) | 37.5 µM (inactive) | > 100 µM (inactive) | > 100 µM (inactive) | > 100 µM (inactive) |  |  |  |  |  |  |
| O=c1c2ccccc2nc(-c2ccccc2)n1NC1OC(CO)C(O)C(O)C1O (stereo not drawn) | > 100 µM (inactive) | > 100 µM (inactive) | > 100 µM (inactive) | > 100 µM (inactive) | > 100 µM (inactive) | > 100 µM (inactive) | > 100 µM (inactive) | > 100 µM (inactive) | > 100 µM (inactive) | > 100 µM (inactive) | > 100 µM (inactive) | > 100 µM (inactive) | > 100 µM (inactive) | > 100 µM (inactive) |  |  |  |  |  |  |
| Cc1cc(O)c2c(c1)C[C@@H](O)C1=C2C(=O)c2c(O)ccc(OC3CC(O)C(OC4CC(OC5CCC(OC6CC(O)C(OC7CC(OC8CCC(O)C(C)O8)C(O)C(C)O7)C(C)O6)C(C)O5)C(O)C(C)O4)C(C)O3)c2C1=O (stereo partly drawn) | 0.373 µM (active) | 0.0845 µM (active) | 0.0209 µM (active) | 0.112 µM (active) | 0.0364 µM (active) | 0.238 µM (active) | 0.0188 µM (active) | 0.0179 µM (active) | 0.128 µM (active) | 0.0224 µM (active) | 0.0265 µM (active) | 0.0716 µM (active) | 0.177 µM (active) | 0.184 µM (active) | 0.345 µM (active) | 0.0311 µM (active) | 0.171 µM (active) | 0.135 µM (active) | 0.223 µM (active) | 0.324 µM (active) |
